Experimental data from patent US6632418B2, “Radioligands and their use for identifying potassium channel modulators” (Abbott Laboratories, priority 2001, dated 2003).
Where two headings read alike, the source gives them in different places.

Key:
[1] = target: T1, ATP-sensitive potassium channels (Cavia porcellus, UniProt A0A286XYR9); assay: Radioligand (Example 1) binding assay, guinea-pig cardiac ventricle membranes; settings: without ATP regenerating system
[2] = target: T1, ATP-sensitive potassium channels; assay: as above; settings: for effect on specific binding of Example 1 (in words): guinea-pig cardiac membranes
Procedure: Membrane Preparation: Guinea-pig cardiac ventricles and bladder membranes were prepared by standard procedures, Gopalakrishnan, M., Johnson, D. E., Janis, R. A. & Triggle, D. J. (1991) Journal of Pharmacology and Experimental Therapeutics, 257, 1162-71; Russ, U., Metzger, F., Kickenweiz, E., Hambrock, A., Krippeit-Drews, P. & Quast, U. (1997) Br. J. Pharmacol., 122, 1119-1126. Briefly, ventricles and bladders were quickly removed from male guinea-pigs (Charles River) and placed in ice-cold binding buffer. Tissues were cleansed of adherent connective tissue, chopped into small pieces and disrupted using Tekmar polytron in about 15-vol./g tissue weight. Homogenates were centrifuged at 45,000×g and the membrane pellets were resuspended in the assay buffer. Membrane preparations from other tissues, cells, both clonal and transfected with KATP subunits, may also be used. Clonal cell lines or transfected cell lines can be cultured by standard tissue culture techniques. When cells were confluent, membrane preparations were made by removal of media followed by scraping the monolayer in ice-cold Tris HCl buffer (pH 7.2). The suspension was then centrifuged at 45,000×g for 20 minutes and the pellet was resuspended in the assay buffer for use in radioligand assays.
Binding Assay: A radioligand of formula (I) such as 9-(4-fluoro-3-[I^125]iodophenyl)-2,3,5,9-tetrahydro-4H-pyrano[3,4-b]thieno[2,3-e]pyridin-8(7H)-one 1,1-dioxide (Example 1) (specific activity, 2000 Ci/mmol) was stored in ethanol. Prior to use, the desired amount of Example 1 was dried under a gentle stream of nitrogen gas and reconstituted in the assay buffer (usually prepared as a 10×stock). Guinea-pig ventricle membranes were incubated in a total 0.25 mL volume of HEPES buffer (composition, NaCl, 139 mM; KCl, 5 mM, MgCl2, 25 mM; CaCl2, 1.25 mM; pH 7.4 at 25° C.) containing an ATP regenerating system (creatine phosphate (40 mM), creatine phosphokinase (100 enzyme units) and varying concentrations of Na2ATP (0.01-3 mM) with Example 1 and varying concentrations of test compounds at 37° C. for 90 minutes. These conditions have been previously employed by Gopalakrishnan et al., 1991 (see above), hereby incorporated by reference, wherein the levels of ATP were consistently maintained since free ADP is converted back to ATP by creatine phosphate and creatine is regenerated to creatine phosphate by the enzyme creatine phosphokinase.
Saturation binding of Example 1 was performed with varying concentrations of Example 1. For inhibition assays, samples were incubated in a final volume of 0.25 mL of buffer containing 1-2 nM of Example 1 with varying concentrations of the test compounds. Incubations were terminated by rapid vacuum filtration through GF/B filters followed by rinsing twice with ice-cold 50 mM Tris HCl (pH 7.4). Radioactivity bound to the filters was assessed by gamma counting. Specific radioligand binding is defined by the inclusion of 10 μM of unlabeled Example 1 and was obtained by subtracting the nonspecific binding from the total binding to membranes and filters.
Membrane protein concentration was determined by the method of Lowry et al Gopalakrishnan, M., Triggle, D. J., Rutledge, A., Kwon, Y. W., Bauer, J. A. & Fung, H. L. (1991) Am. J. Physiol., 261, H1979-H1987; Janis, R. A., Maurer, S. C., Sarmiento, J. G., Bolger, G. T. & Triggle, D. J. (1982). Eur. J. Pharmacol., 82, 191-4.
The equilibrium dissociation constant (KD) and maximal density of binding sites (Bmax) of Example 1 was determined by non-linear regression of the saturation binding isotherm. The Ki values were calculated from the concentration inhibition curve by the method of Cheng and Prusoff (1973) Biochem.Pharmacol.,22, 3099-3108. Data is presented as means±S.E.M.

[3] = target: ATP-sensitive potassium channel; assay: Comparison of the profile of the novel radioligand with [^3H]P1075 in membrane preparations; format: binding; settings: radioligand comparison table; read-out: Affinity
[4] = quantity not given, Ki per method, mean±S.E.M., read-out: displacement of specific Example 1 binding by KATP channel blockers
[5] = cardiac membranes, in the presence of the ATP regenerating system, Cheng-Prusoff, read-out: Ki value for displacement of specific Example 1 binding

T1 sequence (A0A286XYR9 1-1546): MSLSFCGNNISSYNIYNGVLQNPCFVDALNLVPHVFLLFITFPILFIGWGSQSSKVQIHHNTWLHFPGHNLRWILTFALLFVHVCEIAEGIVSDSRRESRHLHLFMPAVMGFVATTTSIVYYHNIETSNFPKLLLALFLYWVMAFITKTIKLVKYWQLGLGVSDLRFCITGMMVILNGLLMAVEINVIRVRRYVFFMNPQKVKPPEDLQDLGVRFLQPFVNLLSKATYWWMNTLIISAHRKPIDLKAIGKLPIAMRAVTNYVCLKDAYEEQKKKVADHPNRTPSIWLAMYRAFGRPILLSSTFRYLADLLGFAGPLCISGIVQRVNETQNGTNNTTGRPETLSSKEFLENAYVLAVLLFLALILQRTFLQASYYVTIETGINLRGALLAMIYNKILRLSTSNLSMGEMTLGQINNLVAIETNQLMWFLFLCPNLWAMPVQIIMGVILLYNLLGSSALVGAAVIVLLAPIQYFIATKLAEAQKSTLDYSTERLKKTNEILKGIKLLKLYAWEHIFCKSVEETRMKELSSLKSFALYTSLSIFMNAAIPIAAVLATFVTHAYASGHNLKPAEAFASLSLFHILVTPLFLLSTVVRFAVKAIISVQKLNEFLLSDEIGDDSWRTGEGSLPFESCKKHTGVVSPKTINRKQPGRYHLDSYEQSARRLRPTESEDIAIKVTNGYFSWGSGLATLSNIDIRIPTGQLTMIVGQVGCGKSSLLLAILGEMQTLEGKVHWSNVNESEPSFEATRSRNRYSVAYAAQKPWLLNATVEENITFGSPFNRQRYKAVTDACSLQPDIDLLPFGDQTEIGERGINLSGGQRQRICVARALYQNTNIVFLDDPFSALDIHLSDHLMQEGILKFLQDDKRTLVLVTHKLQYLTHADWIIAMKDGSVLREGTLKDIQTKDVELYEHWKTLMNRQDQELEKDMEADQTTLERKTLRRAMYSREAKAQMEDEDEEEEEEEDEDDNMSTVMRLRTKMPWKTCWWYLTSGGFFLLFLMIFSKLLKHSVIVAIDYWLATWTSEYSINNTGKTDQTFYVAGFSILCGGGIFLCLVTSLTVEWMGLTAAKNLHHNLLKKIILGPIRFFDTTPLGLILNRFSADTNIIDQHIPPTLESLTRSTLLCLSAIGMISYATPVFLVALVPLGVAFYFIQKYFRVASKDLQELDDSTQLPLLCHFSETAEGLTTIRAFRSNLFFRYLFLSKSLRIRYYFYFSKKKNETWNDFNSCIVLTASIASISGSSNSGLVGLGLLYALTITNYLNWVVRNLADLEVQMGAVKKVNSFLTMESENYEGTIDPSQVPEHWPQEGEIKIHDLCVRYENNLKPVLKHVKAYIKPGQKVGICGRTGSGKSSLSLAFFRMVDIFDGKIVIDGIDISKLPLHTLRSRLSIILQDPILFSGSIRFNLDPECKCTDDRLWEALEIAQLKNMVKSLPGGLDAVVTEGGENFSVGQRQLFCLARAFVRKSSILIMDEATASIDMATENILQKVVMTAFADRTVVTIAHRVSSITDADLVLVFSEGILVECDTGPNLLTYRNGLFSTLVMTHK

SMILES: O=C1COCC2=C1C(c1ccc(F)c([125I])c1)C1=C(CCS1(=O)=O)N2 (stereo not drawn) [Example 1, 9-(4-fluoro-3-[I^125]iodophenyl)-2,3,5,9-tetrahydro-4H-pyrano[3,4-b]thieno[2,3-e]pyridin-8(7H)-one 1,1-dioxide]
- specific binding in the presence of just ATP alone [1]: no specific binding was detected
- maximum binding capacity (Bmax) ([2]; guinea-pig cardiac ventricle membranes, saturation binding, n=3): 107.7±12.7 femtomol/mg protein

SMILES: COC(=O)C1=C(C)NC(C)=C(C(=O)OC(C)C)C1c1cccc2nonc12 (stereo not drawn) [isradipine]
- effect on specific binding of Example 1 (in words) [2]: unaffected

SMILES: COc1ccc(Cl)cc1C(=O)NCCc1ccc(S(=O)(=O)NC(=O)NC2CCCCC2)cc1 [glyburide]
- Ki [2, 4]: 47.6 ± 9.4 nM

SMILES: O=C1COCC2=C1C(c1ccc(F)c(I)c1)C1=C(CCS1(=O)=O)N2 (stereo not drawn) [Unlabeled Example 1, 9-(4-fluoro-3-iodophenyl)-2,3,5,9-tetrahydro-4H-pyrano[3,4-b]thieno[2,3-e]pyridin-8(7H)-one 1,1-dioxide]
- Ki [2, 5]: 5.8 nM

SMILES: CCOc1ccccc1N/C(=C\[N+](=O)[O-])NC(C)C(C)(C)C (stereo not drawn) [Bay X 9228]
- effect on specific binding of Example 1 (in words) [2]: displaced

SMILES: O=C1CCCC2=C1[C@H](c1ccc(F)c(Br)c1)C1=C(CCS1(=O)=O)N2 [Example A-278637]
- effect on specific binding of Example 1 (in words) [2]: displaced

SMILES: O=C1COCC2=C1C(c1ccc(F)c(I)c1)C1=C(CCS1(=O)=O)N2 (stereo not drawn) [Example 1, 9-(4-fluoro-3-[I^125]iodophenyl)-2,3,5,9-tetrahydro-4H-pyrano[3,4-b]thieno[2,3-e]pyridin-8(7H)-one 1,1-dioxide]
- Kd [3]: 5 nM
- Ki [2, 5]: 5.8 nM
- Kd ([2]; guinea-pig cardiac ventricle membranes, single set of saturable sites, n=3, mean±S.E.M., read-out: KD value (equilibrium dissociation constant), saturation binding): 5.83 ± 0.77 nM

SMILES: CC1(C)Oc2ccc(C#N)cc2C(N2CCCC2=O)C1O (stereo not drawn) [cromakalim]
- effect on specific binding of Example 1 (in words) [2]: displaced

SMILES: CC1=NS(=O)(=O)c2cc(Cl)ccc2N1 [diazoxide]
- Ki ([2]; cardiac membranes, rank order potency, read-out: Ki value for displacement of Example 1 binding): 44800 nM

SMILES: CCC(C)(C)N=C(NC#N)Nc1cccnc1 [Example P1075]
- effect on specific binding of Example 1 (in words) [2]: displaced

SMILES: CC(N/C(=N\C#N)Nc1ccncc1)C(C)(C)C (stereo not drawn) [pinacidil]
- effect on specific binding of Example 1 (in words) [2]: displaced

SMILES: Cc1cnc(C(=O)NCCc2ccc(S(=O)(=O)NC(=O)NC3CCCCC3)cc2)cn1 [glipizide]
- Ki [2, 4]: 4500 ± 400 nM
